Structures can show the parent of a compound that is named as a salt.

Data set [1] in a line: Stability in hepatocytes, human. In kind it is in vitro ADME.
In data set [2] the test system is models of painful diabetic neuropathy. Briefly: Models of painful diabetic neuropathy (overview). In kind it is in vivo. The note with it: upon repeated dosing.
The test system of data set [3] is methylglyoxal-induced diabetic neuropathy. Nature of the data set: Rat model of diabetic neuropathy, methylglyoxal-induced. In kind it is in vivo. The note with it: methylglyoxal-induced (overview).

With `CC1(C)SC(Nc2ccccc2O)=N[C@@H]1C(=O)O` [Compound 1, (R)-2-(2-hydroxyphenylamino)-5,5-dimethyl-4,5-dihydrothiazole-4-carboxylic acid mono-hydrochloride], in data set [1], the stability in hepatocytes entry was “stable”. The effect on allodynia result is “reverses allodynia” in data set [2] and “alleviates allodynia” in data set [3].
